Measured values: patent US20030119748A1 (Idun Pharmaceuticals, Inc., priority 1996, published 2003)

Target: T1, mICE (Mus musculus, UniProt P29452)
T1 sequence (P29452 119-402): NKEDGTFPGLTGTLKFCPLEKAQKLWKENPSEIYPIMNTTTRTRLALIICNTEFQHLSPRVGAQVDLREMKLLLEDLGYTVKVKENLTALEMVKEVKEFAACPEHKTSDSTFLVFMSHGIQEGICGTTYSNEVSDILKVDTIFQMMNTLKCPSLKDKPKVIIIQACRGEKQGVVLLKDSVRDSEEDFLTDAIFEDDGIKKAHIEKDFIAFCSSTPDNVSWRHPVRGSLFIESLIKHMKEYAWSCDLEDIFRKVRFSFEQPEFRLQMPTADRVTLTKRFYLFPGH
Assay: Dissociation constant Ki for irreversible inhibitors, continuous assay (Example 1B)
Format: biochemical
Conditions: compounds of Formula B and Formula C, procedure of Example 1B
From the text: B. Determination of the Dissociation Constant K1 and Irreversible Rate Constant k3 for Irreversible Inhibitors
For the irreversible inhibition of a ICE/ced-3 Family Protease enzyme with a competitive irreversible inhibitor; using the model represented by the following formulas: [drawing 4]
The product formation at time t may be expressed as: [drawing 5]
where E, I, EI, and E-I denote the active enzyme, inhibitor, non-covalent enzyme-inhibitor complex and covalent enzyme-inhibitor adduct, respectively. The K1 value is the overall dissociation constant of reversible binding steps, and k3 is the irreversible rate constant. The [S] and Ks values are the substrate concentration and the dissociation constant of the substrate bound to the enzyme, respectively. [E]^T is the total enzyme concentration.
The above equations were used to determine the K1 and k3 values of a given inhibitor bound to a ICE/ced-3 family protease. Thus, a continuous assay was run for sixty minutes at various concentrations of the inhibitor and the substrate. The assay was formulated essentially the same as described in Example 1A above, except that the reaction was initiated by adding the enzyme to the substrate-inhibitor mixture. The K1 and k3 values were obtained by simulating the product AMC formation as a function of time according to Equation 1. The reference compound for this assay was Cbz-ValAlaAsp-CH2F.

Ki [µM] | SMILES
< 1 | CC(C)C(NC(=O)c1cc2ccccc2n1CCCc1ccccc1)C(=O)NC(CC(=O)O)C(=O)CF (stereo not shown) [Example 52, N-[(1-(3′-Phenylpropyl)Indole-2-Carbonyl)Valinyl]-3-Amino-4-Oxo-5-Fluoropentanoic Acid]
< 1 | CC(C)[C@H](NC(=O)c1cc2ccccc2n1-c1ccccc1)C(=O)NC(CC(=O)O)C(=O)CF (stereo partly shown) [Example 55, N-[(1-Phenylindole-2-Carbonyl)Valinyl]-3-Amino-4-Oxo-5-Fluoropentanoic Acid]
< 1 | CC(C)[C@H](NC(=O)c1cc2ccccc2n1CC(=O)O)C(=O)NC(CC(=O)O)C(=O)CF (stereo partly shown) [Example 58, N-[(1-(Carboxymethyl)Indole-2-Carbonyl)Valinyl]-3-Amino-4-Oxo-5-Fluoropentanoic Acid]
< 1 | Cc1c(C(=O)NC(C(=O)NC(CC(=O)O)C(=O)COc2ccccc2C(N)=O)C(C)C)n(C)c2ccccc12 (stereo not shown) [Example 74, N-(1,3-Dimethyl-indole-2-carbonyl)-Valinyl-3-amino-5-(2-aminocarbonyl-1-phenyl)oxy-4-oxo-pentanoic Acid]
